Laboratory results: patent US20230250066A1, “HERBICIDAL CINNOLINE DERIVATIVES” (SYNGENTA CROP PROTECTION AG, priority 2020, published 2023)

Columns and labels:
Format in all cases: in vivo
[1] = system: Echinochloa crus-galli (ECHCG); assay: Pre-emergence herbicidal test; details: 1000 g/ha, evaluated after 13 days
[2] = system: Ipomoea hederacea (IPOHE); assay: Pre-emergence herbicidal test; details: 1000 g/ha, evaluated after 13 days
[3] = system: Abutilon theophrasti (ABUTH); assay: Pre-emergence herbicidal test; details: 1000 g/ha, evaluated after 13 days
[4] = system: Zea mays (ZEAMX); assay: Pre-emergence herbicidal test; details: 1000 g/ha, evaluated after 13 days
[5] = system: Amaranthus retoflexus (AMARE); assay: Pre-emergence herbicidal test; details: 1000 g/ha, evaluated after 13 days
[6] = system: Setaria faberi (SETFA); assay: Pre-emergence herbicidal test; details: 1000 g/ha, evaluated after 13 days
[7] = system: Echinochloa crus-galli (ECHCG); assay: Post-emergence herbicidal test; details: 1000 g/ha unless otherwise stated, evaluated after 13 days
Procedure: (§1) Seeds of a variety of test species are sown in standard soil in pots (Amaranthus retoflexus (AMARE), Solanum nigrum (SOLNI), Setaria faberi (SETFA), Lolium perenne (LOLPE), Echinochloa crus-galli (ECHCG), Ipomoea hederacea (IPOHE), Abutilon theophrasti (ABUTH), Zea mays (ZEAMX)). After 8 days cultivation under controlled conditions in a glasshouse (at 24° C./16° C., day/night; 14 hours light; 65% humidity), the plants are sprayed with an aqueous spray solution derived from the formulation of the technical active ingredient in acetone/water (50:50) solution containing 0.5% Tween 20 (polyoxyethelyene sorbitan monolaurate, CAS RN 9005-64-5). Compounds are applied at 1000 g/ha unless otherwise stated. The test plants are then grown in a glasshouse under controlled conditions in a glasshouse (at 24° C./16° C., day/night; 14 hours light; 65% humidity) and watered twice daily. After 13 days the test is evaluated for the percentage damage caused to the plant. The biological activities are shown in the following table on a five-point scale (5=81-100%; 4=61-80%; 3=41-60%; 2=21-40%; 1=10-20%; 0=0%;−=not tested).

[8] = system: Ipomoea hederacea (IPOHE); assay: Post-emergence herbicidal test; details: 1000 g/ha unless otherwise stated, evaluated after 13 days
Procedure: as §1

[9] = system: Abutilon theophrasti (ABUTH); assay: Post-emergence herbicidal test; details: 1000 g/ha unless otherwise stated, evaluated after 13 days
Procedure: as §1

[10] = system: Setaria faberi (SETFA); assay: Post-emergence herbicidal test; details: 1000 g/ha unless otherwise stated, evaluated after 13 days
Procedure: as §1

[11] = system: Zea mays (ZEAMX); assay: Post-emergence herbicidal test; details: 1000 g/ha unless otherwise stated, evaluated after 13 days
Procedure: as §1

[12] = system: Amaranthus retoflexus (AMARE); assay: Post-emergence herbicidal test; details: 1000 g/ha unless otherwise stated, evaluated after 13 days
Procedure: as §1

Cc1ccc2c(c1S(C)(=O)=O)c(=O)c(C(=O)O)nn2-c1ccc(OC(F)(F)F)cc1 [Compound P6, 6-methyl-5-methylsulfonyl-4-oxo-1-[4-(trifluoromethoxy)phenyl]cinnoline-3-carboxylic acid]
percentage damage caused to the plant, five-point scale, ECHCG [1]: 3 (3=41-60%)
percentage damage caused to the plant, five-point scale, IPOHE [2]: 1 (1=10-20%)
percentage damage caused to the plant, five-point scale, ABUTH [3]: 2 (2=21-40%)
percentage damage caused to the plant, five-point scale, ZEAMX [4]: 1 (1=10-20%)
percentage damage caused to the plant, five-point scale, AMARE [5]: 1 (1=10-20%)
percentage damage caused to the plant, five-point scale, SETFA [6]: 4 (4=61-80%)
percentage damage caused to the plant, ECHCG (five-point scale) [7]: 4 (4=61-80%)
percentage damage caused to the plant, IPOHE (five-point scale) [8]: 1 (1=10-20%)
percentage damage caused to the plant, ABUTH (five-point scale) [9]: 1 (1=10-20%)
percentage damage caused to the plant, SETFA (five-point scale) [10]: 3 (3=41-60%)
percentage damage caused to the plant, ZEAMX (five-point scale) [11]: 1 (1=10-20%)
percentage damage caused to the plant, AMARE (five-point scale) [12]: 2 (2=21-40%)

Cc1cc(S(C)(=O)=O)c2c(=O)c(C(=O)O)nn(-c3ccc(OC(F)(F)F)cc3)c2c1 [Compound P7, 7-methyl-5-methylsulfonyl-4-oxo-1-[4-(trifluoromethoxy)phenyl]cinnoline-3-carboxylic acid]
percentage damage caused to the plant, five-point scale, ECHCG [1]: 4 (4=61-80%)
percentage damage caused to the plant, five-point scale, IPOHE [2]: 1 (1=10-20%)
percentage damage caused to the plant, five-point scale, ABUTH [3]: 1 (1=10-20%)
percentage damage caused to the plant, five-point scale, ZEAMX [4]: 1 (1=10-20%)
percentage damage caused to the plant, five-point scale, AMARE [5]: 1 (1=10-20%)
percentage damage caused to the plant, five-point scale, SETFA [6]: 4 (4=61-80%)
percentage damage caused to the plant, ECHCG (five-point scale) [7]: 4 (4=61-80%)
percentage damage caused to the plant, IPOHE (five-point scale) [8]: 2 (2=21-40%)
percentage damage caused to the plant, ABUTH (five-point scale) [9]: 1 (1=10-20%)
percentage damage caused to the plant, SETFA (five-point scale) [10]: 4 (4=61-80%)
percentage damage caused to the plant, ZEAMX (five-point scale) [11]: 2 (2=21-40%)
percentage damage caused to the plant, AMARE (five-point scale) [12]: 1 (1=10-20%)

CCOC(=O)c1nn(-c2ccc(OC(F)(F)F)cc2)c2ccc(C)c(S(C)(=O)=O)c2c1=O [Compound P8, ethyl 6-methyl-5-methylsulfonyl-4-oxo-1-[4-(trifluoromethoxy)phenyl]cinnoline-3-carboxylic acid]
percentage damage caused to the plant, five-point scale, ECHCG [1]: 3 (3=41-60%)
percentage damage caused to the plant, five-point scale, IPOHE [2]: 1 (1=10-20%)
percentage damage caused to the plant, five-point scale, ABUTH [3]: 1 (1=10-20%)
percentage damage caused to the plant, five-point scale, ZEAMX [4]: 1 (1=10-20%)
percentage damage caused to the plant, five-point scale, AMARE [5]: 1 (1=10-20%)
percentage damage caused to the plant, five-point scale, SETFA [6]: 4 (4=61-80%)
percentage damage caused to the plant, ECHCG (five-point scale) [7]: 4 (4=61-80%)
percentage damage caused to the plant, IPOHE (five-point scale) [8]: 1 (1=10-20%)
percentage damage caused to the plant, ABUTH (five-point scale) [9]: 1 (1=10-20%)
percentage damage caused to the plant, SETFA (five-point scale) [10]: 4 (4=61-80%)
percentage damage caused to the plant, ZEAMX (five-point scale) [11]: 1 (1=10-20%)
percentage damage caused to the plant, AMARE (five-point scale) [12]: 1 (1=10-20%)

CCOC(=O)c1nn(-c2ccc(OC(F)(F)F)cc2)c2cc(C)cc(S(C)(=O)=O)c2c1=O [Compound P9, ethyl 7-methyl-5-methylsulfonyl-4-oxo-1-[4-(trifluoromethoxy)phenyl]cinnoline-3-carboxylate]
percentage damage caused to the plant, five-point scale, ECHCG [1]: 4 (4=61-80%)
percentage damage caused to the plant, five-point scale, IPOHE [2]: 1 (1=10-20%)
percentage damage caused to the plant, five-point scale, ABUTH [3]: 1 (1=10-20%)
percentage damage caused to the plant, five-point scale, ZEAMX [4]: 1 (1=10-20%)
percentage damage caused to the plant, five-point scale, AMARE [5]: 1 (1=10-20%)
percentage damage caused to the plant, five-point scale, SETFA [6]: 4 (4=61-80%)
percentage damage caused to the plant, ECHCG (five-point scale) [7]: 4 (4=61-80%)
percentage damage caused to the plant, IPOHE (five-point scale) [8]: 1 (1=10-20%)
percentage damage caused to the plant, ABUTH (five-point scale) [9]: 1 (1=10-20%)
percentage damage caused to the plant, SETFA (five-point scale) [10]: 3 (3=41-60%)
percentage damage caused to the plant, ZEAMX (five-point scale) [11]: 1 (1=10-20%)
percentage damage caused to the plant, AMARE (five-point scale) [12]: 1 (1=10-20%)

CCOC(=O)c1nn(-c2ccc(OC(F)(F)F)cc2)c2ccc(Br)c(S(C)(=O)=O)c2c1=O [Compound P10, ethyl 6-bromo-5-methysulfonyl-4-oxo-1-[4-(trifluoromethoxy)phenyl]cinnoline-3-carboxylate]
percentage damage caused to the plant, five-point scale, ECHCG [1]: 0 (0=0%)
percentage damage caused to the plant, five-point scale, IPOHE [2]: 0 (0=0%)
percentage damage caused to the plant, five-point scale, ABUTH [3]: 1 (1=10-20%)
percentage damage caused to the plant, five-point scale, ZEAMX [4]: 0 (0=0%)
percentage damage caused to the plant, five-point scale, AMARE [5]: 1 (1=10-20%)
percentage damage caused to the plant, five-point scale, SETFA [6]: 1 (1=10-20%)
percentage damage caused to the plant, ECHCG (five-point scale) [7]: 1 (1=10-20%)
percentage damage caused to the plant, IPOHE (five-point scale) [8]: 0 (0=0%)
percentage damage caused to the plant, ABUTH (five-point scale) [9]: 1 (1=10-20%)
percentage damage caused to the plant, SETFA (five-point scale) [10]: 1 (1=10-20%)
percentage damage caused to the plant, ZEAMX (five-point scale) [11]: 1 (1=10-20%)
percentage damage caused to the plant, AMARE (five-point scale) [12]: 1 (1=10-20%)

CCOC(=O)c1nn(-c2ccc(OC(F)(F)F)cc2)c2cc(Br)cc(S(C)(=O)=O)c2c1=O [Compound P11, ethyl 7-bromo-5-methylsulfonyl-4-oxo-1-[4-(trifluoromethoxy)phenyl]cinnoline-3-carboxylate]
percentage damage caused to the plant, five-point scale, ECHCG [1]: 0 (0=0%)
percentage damage caused to the plant, five-point scale, IPOHE [2]: 0 (0=0%)
percentage damage caused to the plant, five-point scale, ABUTH [3]: 0 (0=0%)
percentage damage caused to the plant, five-point scale, ZEAMX [4]: 0 (0=0%)
percentage damage caused to the plant, five-point scale, AMARE [5]: 0 (0=0%)
percentage damage caused to the plant, five-point scale, SETFA [6]: 0 (0=0%)
percentage damage caused to the plant, ECHCG (five-point scale) [7]: 0 (0=0%)
percentage damage caused to the plant, IPOHE (five-point scale) [8]: 0 (0=0%)
percentage damage caused to the plant, ABUTH (five-point scale) [9]: 1 (1=10-20%)
percentage damage caused to the plant, SETFA (five-point scale) [10]: 1 (1=10-20%)
percentage damage caused to the plant, ZEAMX (five-point scale) [11]: 1 (1=10-20%)
percentage damage caused to the plant, AMARE (five-point scale) [12]: 0 (0=0%)

CS(=O)(=O)c1c(Br)ccc2c1c(=O)c(C(=O)O)nn2-c1ccc(OC(F)(F)F)cc1 [Compound P12, 6-bromo-5-methylsulfonyl-4-oxo-1-[4-(trifluoromethoxy)phenyl]cinnoline-3-carboxylic acid]
percentage damage caused to the plant, five-point scale, ECHCG [1]: 1 (1=10-20%)
percentage damage caused to the plant, five-point scale, IPOHE [2]: 0 (0=0%)
percentage damage caused to the plant, five-point scale, ABUTH [3]: 1 (1=10-20%)
percentage damage caused to the plant, five-point scale, ZEAMX [4]: 0 (0=0%)
percentage damage caused to the plant, five-point scale, AMARE [5]: 0 (0=0%)
percentage damage caused to the plant, five-point scale, SETFA [6]: 4 (4=61-80%)
percentage damage caused to the plant, ECHCG (five-point scale) [7]: 3 (3=41-60%)
percentage damage caused to the plant, IPOHE (five-point scale) [8]: 0 (0=0%)
percentage damage caused to the plant, ABUTH (five-point scale) [9]: 1 (1=10-20%)
percentage damage caused to the plant, SETFA (five-point scale) [10]: 3 (3=41-60%)
percentage damage caused to the plant, ZEAMX (five-point scale) [11]: 1 (1=10-20%)
percentage damage caused to the plant, AMARE (five-point scale) [12]: 1 (1=10-20%)

CS(=O)(=O)c1cc(Br)cc2c1c(=O)c(C(=O)O)nn2-c1ccc(OC(F)(F)F)cc1 [Compound P13, 7-bromo-5-methylsulfonyl-4-oxo-1-[4-(trifluoromethoxy)phenyl]cinnoline-3-carboxylic acid]
percentage damage caused to the plant, five-point scale, ECHCG [1]: 0 (0=0%)
percentage damage caused to the plant, five-point scale, IPOHE [2]: 0 (0=0%)
percentage damage caused to the plant, five-point scale, ABUTH [3]: 1 (1=10-20%)
percentage damage caused to the plant, five-point scale, ZEAMX [4]: 0 (0=0%)
percentage damage caused to the plant, five-point scale, AMARE [5]: 0 (0=0%)
percentage damage caused to the plant, five-point scale, SETFA [6]: 0 (0=0%)
percentage damage caused to the plant, ECHCG (five-point scale) [7]: 1 (1=10-20%)
percentage damage caused to the plant, IPOHE (five-point scale) [8]: 0 (0=0%)
percentage damage caused to the plant, ABUTH (five-point scale) [9]: 0 (0=0%)
percentage damage caused to the plant, SETFA (five-point scale) [10]: 1 (1=10-20%)
percentage damage caused to the plant, ZEAMX (five-point scale) [11]: 1 (1=10-20%)
percentage damage caused to the plant, AMARE (five-point scale) [12]: 1 (1=10-20%)

CCOC(=O)c1nn(-c2ccc(OC(F)(F)F)cc2)c2ccc(Br)c(SC)c2c1=O [Compound P53, ethyl 6-bromo-5-methylsulfanyl-4-oxo-1-[4-(trifluoromethoxy)phenyl]cinnoline-3-carboxylate]
percentage damage caused to the plant, five-point scale, ECHCG [1]: 1 (1=10-20%)
percentage damage caused to the plant, five-point scale, IPOHE [2]: 0 (0=0%)
percentage damage caused to the plant, five-point scale, ABUTH [3]: 1 (1=10-20%)
percentage damage caused to the plant, five-point scale, AMARE [5]: 1 (1=10-20%)
percentage damage caused to the plant, five-point scale, SETFA [6]: 1 (1=10-20%)
percentage damage caused to the plant, ECHCG (five-point scale) [7]: 1 (1=10-20%)
percentage damage caused to the plant, IPOHE (five-point scale) [8]: 1 (1=10-20%)
percentage damage caused to the plant, ABUTH (five-point scale) [9]: 1 (1=10-20%)
percentage damage caused to the plant, SETFA (five-point scale) [10]: 0 (0=0%)
percentage damage caused to the plant, ZEAMX (five-point scale) [11]: 0 (0=0%)
percentage damage caused to the plant, AMARE (five-point scale) [12]: 0 (0=0%)
